Holding throughout (type): functional
Assay [1] has as its system Candida albicans. Description: Residual antifungal activity of amphotericine B was determined against Candida albicans after addition of 30 ppm of ent-cholesterol to the culture; (Range 14-24 mm).
In assay [2] the test system is Candida albicans. Description: Reduction in antifungal activity of amphotericine B was determined against Candida albicans after addition of 60 ppm of cholesterol to the culture.
The test system of assay [3] is Candida albicans. Put plainly: Reduction in antifungal activity of amphotericine B was determined against Candida albicans after addition of 60 ppm of compound to the culture.
Assay [4] relates to Candida albicans. Description: Residual antifungal activity of amphotericine B was determined against Candida albicans after addition of 60 ppm of cholesterol to the culture.

Drawing on ChEMBL document CHEMBL1148246, “Differential modulation of the antifungal activity of amphotericin B by natural and ent-cholesterol” (2004), this text covers Antifungal activity for 1 compound.

Molecules are shown by their SMILES. “And” between values parts separate entries of the source, which are not always exact repeats. Identical values can stand only once.

For the compound `C[C@@H]1[C@H](O)[C@@H](C)/C=C/C=C/C=C/C=C/C=C/C=C/C=C/[C@H](O[C@@H]2O[C@H](C)[C@@H](O)[C@H](N)[C@@H]2O)C[C@@H]2O[C@](O)(C[C@@H](O)C[C@@H](O)[C@H](O)CC[C@@H](O)C[C@@H](O)CC(=O)O[C@H]1C)C[C@H](O)[C@H]2C(=O)O` [AMPHOTERICIN B], the Antifungal activity was 87% in the assay on Candida albicans [1]; 82% with Candida albicans [2]; 76% and 62% with Candida albicans [3]; 73% in the assay on Candida albicans [4].
